One series can be described thus: in vitro. To be noted: human, MT-4 T-lymphocytic cells. The text has this: (§1) In this study, human T-lymphocyte MT-4 cells (ARP-120) were obtained from the National Institute of Health (NIH) HIV Reagent Program, Division of AIDS, National Institute of Allergy and Infectious Diseases (NIAID), NIH; donated by Dr. Douglas Richman. Human T-lymphocytic MT-4 cells express CD4, CXCR4 and CCR5 and are used for cytotoxicity inhibition assays for antiviral drugs. The vials containing frozen MT-4 cells were retrieved from the liquid nitrogen tank and rapidly thawed. In a tissue culture laminar flow hood, the exterior of the vials was decontaminated by spraying 70% ethanol. […] The CCM was sterilized with a 0.22 µm membrane filter before use. The cultures were incubated at 37 °C in a humidified incubator with atmospheric conditions of 5% CO2. […] The cell count and viability were measured by the trypan blue dye exclusion technique.
(§2) The cytotoxicity test was conducted to evaluate the cytotoxicity of the plant extracts by measuring cell death caused by the plant extracts. The assay was conducted using an MTT colorimetric assay as described by. The MTT assay is based on the reduction of the yellow-colored tetrazolium salt MTT 3-(4,5-dimethylthiazol-2-yl)-2,5-diphenyltetrazolium bromide) by NAD(P)H-dependent cellular oxidoreductase enzymes to an insoluble dark-blue colored formazan that can be measured spectrophotometrically. Formazan production indicates the number of viable cells; therefore, an increase or decrease in cellular viability results in a change in the amount of formazan formed, which indicates the degree of cellular cytotoxicity (CC50) caused by the plant extract.
(§3) MTT (3-(4,5-dimethylthiazol-2-yl)-2,5-diphenyl tetrazolium bromide) was dissolved in PBS to obtain a final concentration of 5 mg/mL and filtered to sterilize and remove insoluble residue. The assay was carried out in 96-well, flat-bottomed microtiter plates. To each well, 200 µL of MT-4 cells (1 × 10^5 cells) in growth media was added. The plates were preincubated for 24 h at 37 °C to allow stabilization. Then, 50 μL of the test compounds (at a concentration of 4 mg/mL) were added to the first column of the well. With a multichannel pipette, 50 μL was transferred (in triplicate) from the wells labeled 1 to wells labeled 2, and such transfers were continued (serial dilution), moving from left to right, changing tips prior to mixing contents of the next column of wells. Finally, 50 μL was discarded from the wells in column 12. […] Each dilution was tested in triplicate. The negative control (NC) wells contained 50 µL of MT-4 cells in 0.5% DMSO [39].
(§4) A 96-well microtiter plate containing the test compounds, positive and negative controls was incubated at 37 °C in a humidified atmosphere of 5% CO2 for 5 days. After incubation, 20 μL of MTT reagent (5 mg/mL MTT in phosphate-buffered saline) was added to each test well and control well. The plate was further incubated at 37 °C in a CO2 incubator for 4 h. After 4 h of incubation, 100 μL of DMSO was added to dissolve the dark-blue formazan crystals from surviving cells. After the formazan crystals were dissolved completely, the resulting optical density (OD) readings were measured relative to the controls on an ELISA plate reader at 570 nm at a reference wavelength of 620 nm. […] The concentration that determined cell viability above 80% (CC20) was chosen as the maximum non-toxic concentration (MNTC).

Series [1] has as its system human T-lymphocytic MT-4 cells. The series can be described thus: in vitro. To be noted: MT-4 cells, 5 days, MTT, mean ± S.E.M, n = 3; for MNTC, maximum nontoxic concentration: concentration with cell viability above 80% (CC20).
Description: as §1, §2, §3, §4

The next series deals with HIV-1IIIB. The series can be described thus: Anti-HIV activity: inhibition of HIV-induced cytopathic effect in infected MT-4 cells (MTT). In kind it is cell-based, Human immunodeficiency virus type 1. To be noted: for IC50: Human immunodeficiency virus 1, MT4, 120 h; for SI, selective index: ratio CC50 (MT-4) / IC50 (HIV-1IIIB). Here is the method: Human immunodeficiency virus type 1 (HIV-1IIIB) strain was obtained from the NIH HIV Reagent Program, Division of AIDS, NIAID, NIH. Dr. Robert Gallo donated human immunodeficiency virus-1 IIIB (ARP-398). HIV-1IIIB is highly capable of replicating in human T cell lines and appears to be well adapted for in vitro culture in T cells. The frozen HIV-1IIIB vials were thawed by immersion in room temperature water, and the vial was swirled until viruses were thawed. Then, 400 µL of the virus was transferred to 75 cm^2 tissue culture flasks (T75) containing 10 mL of 1 × 10^5 pelleted MT4 cells/mL, vortexed and incubated at 37 °C for 1 hr for virus adsorption. After 1 hr, 20 mL of RPMI-1640 was added gently and mixed with vortexing. The cells were then pelleted by centrifuging at 1500 rpm for 5 min. The pelleted cells were then washed and resuspended in 30 mL RPMI 1640 with L-glutamine and 20% fetal bovine serum in a T75 flask, incubated at 37 °C and monitored for the development of cytopathic effects (CPEs).
The virus infectivity test was performed to determine the infectious titer of the virus, which can cause cytopathic effects (CPE) in tissue culture over a reasonable period of 3 to 10 days while cells in culture remain viable. In addition, this procedure was performed to quantify the amount of virus required to produce a cytopathic effect in 50% of cell culture replicates (TCID50). CPE induced by the virus was observed under a microscope after 3–4 days. The TCID50 was then calculated as described by. For the anti-HIV activity testing, 640 µL of HIV-1IIIB virus at 1.26 × 10^8 TCID50/mL was used to infect 1 × 10^8 cell/mL. All procedures were carried out following biosafety guidelines defined in the BMBL, NIH-CDC HHS Publication No. (CDC) 21-1112 [44].
MT-4 cells suspended at 1 × 10^8 cells/mL were infected with 640 µL of HIV-1IIIB virus at 1.26 × 10^8 TCID50/mL as described in above. After infection, 200 µL HIV-infected MT-4 cells (1 × 10^5 cells/well) in growth media were added to each well. The plates were preincubated for 24 h at 37 °C to allow stabilization. Then, 50 μL of the test compounds (at a concentration of 4 mg/mL) were added to the first column of the well. With a multichannel pipette, 50 μL was transferred (in triplicate) from the wells labeled 1 to wells labeled 2. Such transfers were continued (serial dilution), moving from left to right, changing tips prior to mixing contents of the next column of wells. Finally, 50 μL was discarded from the wells in column 12. Different concentrations ([…]) of test compounds were prepared through serial dilution. Each dilution was tested in triplicate. The microtiter plates were incubated at 37 °C in a 5% CO2 incubator for 5 days. […] After 5 days of incubation, cell viability was determined by the MTT assay as described by.
A dose-response curve was plotted to calculate the concentrations that reduced viral replication by 50% (IC50). […] The efficacy of the test compounds, was determined by calculating the viral inhibition rate (EmaxAV) using Equation (1), as previously described by.
In general terms: Cytopathic effects are the visible damage that an infection or toxin causes in cultured cells.

The mark [2] stands for this setting: HIV-1IIIB-infected MT-4 cells, 5 days, MTT, mean ± S.E.M, n = 3.
Where [3] appears, read: read-out: IC50, 50% antiviral effect concentration, HIV-1IIIB-infected MT-4 cells, 5 days, MTT, mean ± S.E.M, n = 3.

Structures are written as SMILES. Values after ≈ are worked out from the molar mass of the structure shown. Values joined by “and” are separate entries in the source; they are usually repeats but may differ in a detail not shown here. Identical values can stand only once. Like-named read-outs stand apart in the source and are kept apart here.

By CC50 is commonly meant the concentration that lowers cell viability or growth by half. Low readings indicate greater toxicity to the cells, high ones lower toxicity to the cells.

With `CC1=C2C[C@]3(O)[C@@H](C)CCC[C@@]3(C)C[C@@]2(O)OC1=O` [Compound 2, 5β,8α-Dihydroxy eudesm-7(11)-en-12,8-olide], the 50% cytotoxic concentration (CC50) at 5 days in “in vitro” was 38.4 ± 0.63 µg/mL (≈ 144 µM). In series [1], the “MNTC, maximum nontoxic concentration” value turned out to be 4.973 ± 0.25 µg/mL and the “EmaxC, maximum cytotoxic effect %” value worked out at 81.59 ± 0.41%. In the series on HIV-1IIIB (setting [2]), the “EmaxAV, maximum antiviral effect % (viral inhibition rate)” value is 69.5% and 69.51 ± 0.26%. The IC50 with HIV-1IIIB (setting [3]) is 0.002 µg/mL (≈ 0.00751 µM). Moreover, the “SI, selective index” value in the series on HIV-1IIIB was 25,339.5.
On to `Cc1ccnc2c1NC(=O)c1cccnc1N2C1CC1` [NVP, Nevirapine, reference compound], for which, in series [1], the “MNTC, maximum nontoxic concentration” value stood at 0.57 ± 0.0 µg/mL; the “CC50, 50% cytotoxic concentration” value is 0.82 ± 0.0 µg/mL (≈ 3.08 µM); the “EmaxC, maximum cytotoxic effect %” value is reported as 39.13 ± 0.65%. Further, the “EmaxAV, maximum antiviral effect % (viral inhibition rate)” value with HIV-1IIIB (setting [2]) was 72.53 ± 0.47%. Besides, the IC50 in the series with HIV-1IIIB (setting [3]) was 0.24 ± 0.09 µg/mL (≈ 0.901 µM). The “SI, selective index” value with HIV-1IIIB worked out at 3.5.
Turning to `C[C@H](Cn1cnc2c(N)ncnc21)OCP(=O)(O)O` [TDF, tenofovir], in series [1], the “MNTC, maximum nontoxic concentration” value stood at 4.92 ± 0.71 µg/mL; the “CC50, 50% cytotoxic concentration” value came out at 6.73 ± 0.24 µg/mL (≈ 23.4 µM); the “EmaxC, maximum cytotoxic effect %” value turned out to be 13.17 ± 0.43%. The “EmaxAV, maximum antiviral effect % (viral inhibition rate)” value in the series with HIV-1IIIB (setting [2]) is given as 80.55 ± 0.46%. In addition, in the series on HIV-1IIIB (setting [3]), the IC50 was found to be 0.04 ± 0.01 µg/mL (≈ 0.139 µM).
In the series “in vitro”, `CO[C@@]12C[C@]3(C)CCC[C@H](C)[C@@]3(O)CC1=C(C)C(=O)O2` [Compound 1, 5β-Hydroxy-8α-methoxy eudesm-7(11)-en-12,8-olide] came in with a CC50 at 5 days of 96.77 ± 0.44 µg/mL (≈ 345 µM). Besides, in series [1], the “MNTC, maximum nontoxic concentration” value was determined as 41.84 ± 0.11 µg/mL and the “EmaxC, maximum cytotoxic effect %” value is given as 62.21 ± 0.67%. In addition, in the series with HIV-1IIIB (setting [2]), the “EmaxAV, maximum antiviral effect % (viral inhibition rate)” value is 93% and 93.4 ± 0.60%. Besides, in the series on HIV-1IIIB (setting [3]), the IC50 was found to be 0.002 µg/mL (≈ 0.00713 µM). Also, the “SI, selective index” value in the series with HIV-1IIIB was 39,872.3.
In “in vitro”, `CC1=C2C[C@]3(O)[C@@H](C)CCC[C@@]3(C)C[C@@H]2OC1=O` [Compound 3, 5β-Hydroxy-8H-β-eudesm-7(11)-en-12,8-olide] showed a CC50 at 5 days of 148.1 ± 0.05 µg/mL (≈ 592 µM). Also, in series [1], the “MNTC, maximum nontoxic concentration” value came to 64.93 ± 0.26 µg/mL and the “EmaxC, maximum cytotoxic effect %” value is on record as 65.00 ± 0.01%. For the same compound, in the series with HIV-1IIIB (setting [2]), the “EmaxAV, maximum antiviral effect % (viral inhibition rate)” value was 77.5% and 77.46 ± 0.93%; the “IC50, 50% antiviral effect concentration” value turned out to be 0.044 ± 0.01 µg/mL (≈ 0.176 µM). Besides, the IC50 in the series with HIV-1IIIB (setting [3]) was determined as 0.04 µg/mL (≈ 0.16 µM). The “SI, selective index” value with HIV-1IIIB is 3384.4.
Consider `Cc1cn([C@H]2C[C@H](N=[N+]=[N-])[C@@H](CO)O2)c(=O)[nH]c1=O` [AZT, zidovudine, reference compound], for which the “EmaxAV, maximum antiviral effect % (viral inhibition rate)” value in the series on HIV-1IIIB (setting [2]) was determined as 83.5 ± 0.57%. Further, the IC50 in the series on HIV-1IIIB (setting [3]) was found to be 0.002 µg/mL (≈ 0.00748 µM).
Consider `Nc1nc(NC2CC2)c2ncn([C@H]3C=C[C@@H](CO)C3)c2n1` [ABC, abacavir, reference compound], for which, in series [1], the “MNTC, maximum nontoxic concentration” value was found to be 0.18 ± 0.03 µg/mL; the “CC50, 50% cytotoxic concentration” value came to 0.26 ± 0.00 µg/mL (≈ 0.908 µM); the “EmaxC, maximum cytotoxic effect %” value is listed as 17.83 ± 0.57%. The “EmaxAV, maximum antiviral effect % (viral inhibition rate)” value with HIV-1IIIB (setting [2]) was 58.67 ± 0.43%. The IC50 with HIV-1IIIB (HIV-1IIIB-infected MT-4 cells, 5 days, MTT, mean ± S.E.M, n = 3, read-out: IC50, 50% antiviral effect concentration) worked out at 0.05 ± 0.031 µg/mL (≈ 0.175 µM). Also, the “SI, selective index” value with HIV-1IIIB came out at 5.0.
